# “And” between values parts separate entries of the source, which are not always exact repeats. Equal entries are not always repeated.
# Tests used:
# [1] = system: passively induced adjuvant arthritis; assay: Passively induced adjuvant arthritis, change in foot volume; type: in vivo, (DAxLewis)F₁ rats; details: for % Δ in foot volume: 350 mg/kg/day s.c. osmotic pump from cell transfer, individual rats, 350 mg/kg/day
# Procedure: (DAxLewis)F₁ rats were immunized with 3mg M.butyricum in light mineral oil injected intradermally in both hind feet. Ten days later spleens were removed and made into a single cell suspension in RPMI containing 5% fetal calf serum, 200mM L Glutamine, 5 x 10⁻ ⁵M 2-ME, penicillin and streptomycin. Cells were adjusted to 2 x 10⁶ cells/ml, and cultured in 50ml media in 75mm culture flasks. ConA was added at 2µg/ml and cultures incubated for 72hrs at 37°C in an atmosphere of 10% CO₂, 7% O₂ and the balance N₂. Cells were then washed and transferred at 50 x 10⁶ or 60 x 10⁶ cells/rat i.v. into 10 weeks old male (DAxLewis)F₁.
# Castanospermine was put in osmotic pumps (Alza Corp.) which delivered 5µl/hr for 14 days. Pumps were implanted subcutaneously at the time of cell transfer. Rats received 350mg/kg/day of castanospermine.
# Hind feet of rats were measured in 4 diameters beginning the day of cell transfer. The measurements are averaged and expressed as % change in volume of feet.
# Two experiments have been performed both treating rats with 350mg/kg/day castanospermine beginning the day of cell transfer.
# [2] = Preliminary toxicity studies; type: in vivo; details: 500 mg/kg/day for 7 days; animals observed for a 6 week period after treatment; data not shown
# [3] = system: Delayed hypersensitivity (DTH); assay: Delayed hypersensitivity (DTH) to sheep red blood cells, foot swelling; type: in vivo, C57BL mice; details: CS ip every 4 hours from footpad testing, total 300 mg/kg/mouse over 24 hrs; 5 mice/group; control group 33%
# Procedure: C57BL mice were given 10⁸ sheep red blood cells (SRBC) intravenously. Five days later 10⁵ SRBC in a volume of […] was injected into the left hind footpad and […] saline into the right. Castanospermine was given every 4 hours ip beginning at the time of footpad testing. Total dose of CS over 24 hrs was 300 mg/kg/mouse. Control mice were given saline every 4 hours, and 5 mice/group were used in both test and control groups.
# [4] = system: passive EAE; assay: Passively induced experimental allergic encephalomyelitis (passive EAE), clinical grading and CNS histology; type: in vivo, Lewis (RT-1') rats; details: for protection against clinical EAE: osmotic pump implanted at time of cell transfer; for mean clinical score: score out of possible 5 ± standard errors
# [5] = system: renal allografts; assay: Renal allograft survival; type: in vivo, DA rats; details: pump; for No. of rats surviving more than 14 days: DA rats with (DA/LEW) renal allografts; for No. of days of Survival: the rat surviving more than 14 days
# From the text: One kidney from each rat was replaced with a donor kidney, after which the remaining original rat kidney was removed. The results are set out in Table 5 below: Table 5
# [6] = system: pancreatic islets; assay: Transplantation of allogeneic pancreatic islets, graft rejection by blood glucose; type: in vivo, CBA mice
# Procedure: Donor mice were Balb/c (H2^d) and recipients were CBA (H2^k). Donor pancreatic islets were prepared using standard techniques. Approximately 400 islets were isolated from 10 donor mice. These freshly isolated islets, in groups of 50, were placed into CBA blood clots and these were placed under the kidney capsule of CBA mice which were diabetic (blood glucose 20mM/litre).
# Two recipients were implanted (subcutaneously) with miniosmotic pumps containing CS at the time of islet transplantation. These pumps delivered CS at a dose of 300 mg/kg/mouse/day for a period of 14 days. Two control mice were sham operated.
# Blood samples (10µl) were taken daily and assayed for blood glucose using an automatic analyser (Beckman Glucose Analyzer 2).
# All transplant recipients became normoglycaemic within 24 hours indicating successful transplantation of all of the grafts. Rejection of grafts was assumed to occur when animals became hyperglycaemic. Control animals rejected on days 9 and 12.
# [7] = Table 1, CS 100 mg/kg/day, s.c. miniosmotic pump at time of cell transfer
# [8] = Table 1, CS 200 mg/kg/day, s.c. miniosmotic pump at time of cell transfer
smiles,measurement,setting,value
"O[C@H]1[C@H](O)[C@@H](O)CN2CC[C@H](O)[C@H]12 [CS, Castanospermine]",% Δ in foot volume,"[1]; Exp 1, 50 x 10^6 cells, Day 7",-5% and 5% and 0% and +12%
same,% Δ in foot volume,"[1]; Exp 1, 50 x 10^6 cells, Day 14",-1% and 0% and +9% and +4%
same,inflammation of feet,"[1]; Exp 1 and Exp 2, 350 mg/kg/day from cell transfer",In no case did any of the CS treated rats show inflammation
same,% Δ in foot volume,"[1]; Exp 2, 60 x 10^6 cells, Day 7",-5% and -7% and -3% and +3%
same,% Δ in foot volume,"[1]; Exp 2, 60 x 10^6 cells, Day 14",-8% and -18% and -14% and -1%
same,swelling and inflammation after end of treatment,"[1]; Exp 2, pumps removed on day 15, animals followed out to day 28+",remained normal
same,toxic effect,[2],no apparent toxic effect
same,increase in foot swelling,[3],11%
same,protection against clinical EAE,[4]; 100 mg/kg/day,no protective effect
same,protection against clinical EAE,[4]; 200 mg/kg/day,only partial protection
same,number of inflammatory lesions in CNS tissues (histology),"[4]; 300 mg/kg/day from cell transfer, rats killed at day 8, compared with untreated rats",approximately the same number of inflammatory lesions as untreated rats
same,protection against clinical EAE,[4]; 300 mg/kg/day,complete protection
same,mean day of onset,[4]; [7],4±0
same,mean clinical score,[4]; [7],4.0±0
same,animals with EAE,"[4]; Table 1, CS 100 mg/kg/day, s.c. miniosmotic pump placed at time of cell transfer",4/4
same,mean day of onset,[4]; [8],5±0
same,mean clinical score,[4]; [8],2.0±0
same,animals with EAE,"[4]; Table 1, CS 200 mg/kg/day, s.c. miniosmotic pump placed at time of cell transfer",4/4
same,animals with EAE,"[4]; Table 1, CS 300 mg/kg/day, s.c. miniosmotic pump placed at time of cell transfer",0/4
same,animals with EAE,"[4]; Table 2, convalescent rats (compromised blood-brain barrier), CS 300 mg/kg/day, s.c. miniosmotic pump at time of secondary cell transfer",0/4
same,animals with EAE,"[4]; Table 2, naive rats, CS 300 mg/kg/day, s.c. miniosmotic pump at time of cell transfer",0/4
same,animals with EAE,"[4]; Table 3, experiment 1, CS 150 mg/kg i.p., 12 hourly, initiated on day 4 (before clinical signs), for 3 days",0/3
same,animals with EAE,"[4]; Table 3, experiment 2, CS 150 mg/kg i.p., 12 hourly, initiated on day 4 (after onset of signs)",3/3
same,mean clinical score,"[4]; Table 3, experiment 2, CS 150 mg/kg i.p., 12 hourly, initiated on day 4",4±0
same,animals with EAE,"[4]; Table 3, experiment 3, CS 300 mg/kg osmotic pump, initiated on day 4 (after onset of signs)",5/5
same,mean clinical score,"[4]; Table 3, experiment 3, CS 300 mg/kg osmotic pump, initiated on day 4",4±0
same,clinical signs of EAE with delayed treatment,"[4]; exp.1, two 150 mg/kg i.p. injections daily from 4 days after cell transfer for 3 days, signs in untreated animals not apparent until day 6",did not develop clinical signs of EAE
same,clinical signs of EAE with delayed treatment,"[4]; exp.3, osmotic pumps implanted on day 4 after cell transfer, all animals showed mild clinical signs on day 4",failed to modify subsequent disease expression
same,second episode of passively induced EAE,"[4]; rats recovered from one episode, pump delivering 300 mg/kg/day on the day of secondary transfer",did not develop a second episode of the disease
same,No. of rats surviving more than 14 days,"[5]; 100mg/kg, 9 rats",1
same,No. of days of Survival,[5]; 100mg/kg,100 days
same,No. of rats surviving more than 14 days,"[5]; 250mg/kg, 7 rats",1
same,No. of days of Survival,[5]; 250mg/kg,33 days
same,day of graft rejection (hyperglycaemia),"[6]; Balb/c islets in diabetic CBA mice, 300 mg/kg/mouse/day s.c. miniosmotic pump for 14 days, one mouse, controls rejected on days 9 and 12",19 days
same,day of graft rejection (hyperglycaemia),"[6]; other CS treated mouse, whose miniosmotic pump was found not to have delivered its CS payload",12 days
